# Reference: article PMC9956102, “Structural Insights on Hyp-Gly-Containing Peptides as Antiplatelet Compounds through Topomer CoMFA and CoMSIA Analysis” (Foods, 2023)
# Counter-ions that a name gives are not always drawn. Peptide text beside a SMILES is read from it.
# System: thrombus formation
# Experiment: not given
# Settings: oral administration; cited from earlier work
# Text: Collagen is a natural source of bioactive peptides and widely distributed in skin and bone tissue, which has a unique triple-helix structure with a repeated amino acid sequence of (Gly-X-Y)n, in which X and Y are typically Pro and Hyp. Hyp-Gly-containing peptides are abundant in collagen, and a large quantity of these peptides could be released after hydrolysis.
row,Molecule,thrombus formation in vivo
1,OGEFG [peptide identified from Salmo Salar skin in a previous study],attenuates thrombus formation without bleeding risks

# System: not listed separately
# Experiment: Coagulation parameters (PT, APTT, TT) after oral administration
# Format: in vivo, rat
# Settings: SD rats, 65 μmol/kg bw, n = 6
# Text: The prothrombin time (PT), activated partial thromboplastin time (APTT), and thrombin time (TT) assay methods refer to our previous study. PT, APTT, and TT detection kits (Siemens, Shanghai, China) were employed for the determination of coagulation parameters according to the manufacturer’s instructions.
PT (prothrombin time),TT (thrombin time),Molecule
altered the TT and PT significantly,altered the TT and PT significantly,"COC(=O)[C@H](c1ccccc1Cl)N1CCc2sccc2C1 [clopidogrel, Clopidogrel hydrogen sulfate, reference compound]"

# Same assay, conditions: SD rats, 200 μmol/kg b.w., n = 6
row,"coagulation parameters, including PT, TT, and APTT",Molecule
1,no significant effect,"N[C@@H](CCC(=O)O)C(=O)N1C[C@H](O)C[C@H]1C(=O)NCC(=O)N[C@@H](CCC(=O)O)C(=O)O [EOGE, Glu-Hyp-Gly-Glu] (HELM PEPTIDE1{E.[Hyp].G.E}$$$$V2.0)"

# Same assay, conditions: SD rats, 300 μmol/kg b.w., n = 6
row,"coagulation parameters, including PT, TT, and APTT",Molecule
1,no significant effect,"N[C@@H](CCC(=O)O)C(=O)N1C[C@H](O)C[C@H]1C(=O)NCC(=O)N[C@@H](CCC(=O)O)C(=O)O [EOGE, Glu-Hyp-Gly-Glu] (HELM PEPTIDE1{E.[Hyp].G.E}$$$$V2.0)"

# System: ADP-induced platelet aggregation
# Experiment: not given
# Format: cell-based, rat
# Settings: not given
# Method: The platelet was isolated from rat aorta blood and mixed with sodium citrate (1:9, v/v) as previously described with some modifications. Briefly, anticoagulated blood was centrifuged (50× g, 10 min) to obtain platelet-rich plasma (PRP). The residue was centrifuged at 750× g for 10 min to collect the platelet-poor plasma (PPP), and PRP was diluted to 2–3 × 10^8 with PPP.
# Inhibition of platelet aggregation induced by ADP was measured with a four-channel aggregometer as previously described. Aliquots of 270 μL of PRP were incubated with 30 μL of PPP or peptides with different concentrations at 37 °C for 5 min. After incubation, platelet aggregation was induced by adding 30 μL of ADP (0.1 mM). The platelet aggregation at 5 min was recorded, and the inhibition rate was calculated as follows. Inhibition of platelet aggregation (%) = [1 − platelet aggregation (sample)/platelet aggregation (control)] × 100
# The IC50 value of platelet aggregation was calculated by Graphpad Prism 6.0.
row,IC50 [µM],Molecule
1,760,NC(=O)CC[C@H](NC(=O)CNC(=O)[C@@H]1C[C@@H](O)CN1)C(=O)O [OGQ] (HELM PEPTIDE1{[Hyp].G.Q}$$$$V2.0; N-terminus and C-terminus assumed)
2,2080,NCC(=O)N1C[C@H](O)C[C@H]1C(=O)N1C[C@H](O)C[C@H]1C(=O)NCC(=O)N1CCC[C@H]1C(=O)N[C@@H](CCC(N)=O)C(=O)O [GOOGPQ] (HELM PEPTIDE1{G.[Hyp].[Hyp].G.P.Q}$$$$V2.0; N-terminus and C-terminus assumed)
3,1400,O=C(CNC(=O)[C@@H]1CCCN1)N[C@@H](Cc1c[nH]cn1)C(=O)N[C@@H](Cc1c[nH]cn1)C(=O)O [PGHH]
4,927,O=C(O)CC[C@H](NC(=O)CNC(=O)[C@@H]1CCCN1)C(=O)O [PGE] (H-Pro-Gly-Glu-OH; N-terminus and C-terminus assumed)
5,2570,NCCCC[C@H](NC(=O)CNC(=O)[C@@H]1CCCN1)C(=O)N1CCC[C@H]1C(=O)O [PGKP] (H-PGKP-OH)
6,2790,NCCCC[C@H](NC(=O)[C@@H]1CCCN1C(=O)CNC(=O)[C@@H]1CCCN1)C(=O)O [PGPK] (H-PGPK-OH)
7,506,O=C(NCC(=O)N1CCC[C@H]1C(=O)O)[C@@H]1C[C@@H](O)CN1 [OGP] (HELM PEPTIDE1{[Hyp].G.P}$$$$V2.0; N-terminus and C-terminus assumed)
8,630,C[C@H](NC(=O)[C@H](CO)NC(=O)CNC(=O)[C@@H]1C[C@@H](O)CN1)C(=O)O [OGSA] (HELM PEPTIDE1{[Hyp].G.S.A}$$$$V2.0)
9,3560,NC(=O)CC[C@H](NC(=O)[C@@H]1CCCN1C(=O)CNC(=O)[C@@H]1CCCN1)C(=O)O [PGPQ] (H-PGPQ-OH)
10,1420,O=C(O)CNC(=O)[C@@H]1C[C@@H](O)CN1 [OG] (HELM PEPTIDE1{[Hyp].G}$$$$V2.0)
11,661,N[C@@H](CC(=O)O)C(=O)N1C[C@H](O)C[C@H]1C(=O)NCC(=O)N[C@@H](CCC(=O)O)C(=O)O [DOGE] (HELM PEPTIDE1{D.[Hyp].G.E}$$$$V2.0)
12,395,N[C@@H](CCC(=O)O)C(=O)N1C[C@H](O)C[C@H]1C(=O)NCC(=O)O [EOG] (HELM PEPTIDE1{E.[Hyp].G}$$$$V2.0; N-terminus and C-terminus assumed)
13,857,O=C(O)CC[C@H](NC(=O)CNC(=O)[C@@H]1CCCN1)C(=O)N1C[C@H](O)C[C@H]1C(=O)NCC(=O)O [PGEOG] (HELM PEPTIDE1{P.G.E.[Hyp].G}$$$$V2.0; N-terminus and C-terminus assumed)
14,2410,NC(=O)CC[C@H](NC(=O)CNC(=O)[C@@H]1CCCN1)C(=O)N1CCC[C@H]1C(=O)O [PGQP] (H-PGQP-OH)
15,317,O=C(O)CC[C@H](NC(=O)CNC(=O)[C@@H]1C[C@@H](O)CN1C(=O)[C@H](CCC(=O)O)NC(=O)CNC(=O)[C@@H]1CCCN1)C(=O)O [PGEOGE] (HELM PEPTIDE1{P.G.E.[Hyp].G.E}$$$$V2.0; N-terminus and C-terminus assumed)
16,435,O=C(O)C[C@H](NC(=O)CNC(=O)[C@@H]1C[C@@H](O)CN1)C(=O)O [OGD] (HELM PEPTIDE1{[Hyp].G.D}$$$$V2.0; N-terminus and C-terminus assumed)
17,1490,CSCC[C@H](NC(=O)[C@@H]1C[C@@H](O)CN1C(=O)CNC(=O)[C@@H]1C[C@@H](O)CN1)C(=O)NCC(=O)O [OGOMG] (HELM PEPTIDE1{[Hyp].G.[Hyp].M.G}$$$$V2.0; N-terminus and C-terminus assumed)
18,878,NCC(=O)N[C@@H](CCC(=O)O)C(=O)N1C[C@H](O)C[C@H]1C(=O)NCC(=O)O [GEOG] (HELM PEPTIDE1{G.E.[Hyp].G}$$$$V2.0)
19,2450,CC(C)[C@H](N)C(=O)NCC(=O)N1CCC[C@H]1C(=O)N1C[C@H](O)C[C@H]1C(=O)NCC(=O)N1CCC[C@H]1C(=O)N[C@@H](C)C(=O)O [VGPOGPA] (HELM PEPTIDE1{V.G.P.[Hyp].G.P.A}$$$$V2.0; N-terminus and C-terminus assumed)
20,558,O=C(O)CC[C@H](NC(=O)[C@H](CO)NC(=O)CNC(=O)[C@@H]1C[C@@H](O)CN1)C(=O)O [OGSE] (HELM PEPTIDE1{[Hyp].G.S.E}$$$$V2.0)
21,390,"N[C@@H](CCC(=O)O)C(=O)N1C[C@H](O)C[C@H]1C(=O)NCC(=O)N[C@@H](CCC(=O)O)C(=O)O [EOGE, Glu-Hyp-Gly-Glu] (HELM PEPTIDE1{E.[Hyp].G.E}$$$$V2.0)"
22,620,O=C(O)CC[C@H](NC(=O)CNC(=O)[C@@H]1C[C@@H](O)CN1)C(=O)O [OGE] (HELM PEPTIDE1{[Hyp].G.E}$$$$V2.0; N-terminus and C-terminus assumed)
23,5340,CSCC[C@H](NC(=O)[C@@H]1CCCN1C(=O)CNC(=O)[C@@H]1CCCN1C(=O)[C@@H]1C[C@@H](O)CN1C(=O)CN)C(=O)O [GOPGPM] (HELM PEPTIDE1{G.[Hyp].P.G.P.M}$$$$V2.0; N-terminus and C-terminus assumed)
24,3640,O=C(O)CNC(=O)[C@@H]1CCCN1 [PG] (H-Pro-Gly-OH; N-terminus and C-terminus assumed)

# System: not listed separately
# Experiment: Thymus index and spleen index
# Format: in vivo, rat
# Settings: SD rats, oral, 65 μmol/kg bw, n = 6
# Method: After the rats were sacrificed, the thymuses and spleens were collected and weighed to obtain the thymus index (TI) and spleen index (SI). The TI and SI were calculated according to the following equation: TI/SI (mg/g) = (weight of thymus/spleen)/body weight.
row,thymus index (TI) and spleen index (SI) compared to vehicle group,Molecule
1,no significant difference,"COC(=O)[C@H](c1ccccc1Cl)N1CCc2sccc2C1 [clopidogrel, Clopidogrel hydrogen sulfate, reference compound]"

# Same assay, conditions: SD rats, oral, 200 μmol/kg b.w., n = 6
row,thymus index (TI) and spleen index (SI) compared to vehicle group,Molecule
1,no significant difference,"N[C@@H](CCC(=O)O)C(=O)N1C[C@H](O)C[C@H]1C(=O)NCC(=O)N[C@@H](CCC(=O)O)C(=O)O [EOGE, Glu-Hyp-Gly-Glu] (HELM PEPTIDE1{E.[Hyp].G.E}$$$$V2.0)"

# Same assay, conditions: SD rats, oral, 300 μmol/kg b.w., n = 6
row,thymus index (TI) and spleen index (SI) compared to vehicle group,Molecule
1,no significant difference,"N[C@@H](CCC(=O)O)C(=O)N1C[C@H](O)C[C@H]1C(=O)NCC(=O)N[C@@H](CCC(=O)O)C(=O)O [EOGE, Glu-Hyp-Gly-Glu] (HELM PEPTIDE1{E.[Hyp].G.E}$$$$V2.0)"
